In one experiment the test system is HeLa cells. Briefly: Direct growth suppression, MTT method. Format: cell-based. The following applies: Homo sapiens, 24 hours, read-out: IC50 of VST. The source says: (§1) In this Example, HeLa cells and various other culture cells were used to measure the survival rate during the above-mentioned reporter analysis and VST addition. Specifically, in addition to HeLa cells (human cervical cancer cells), MCF-7 (human breast cancer cells), PC12NH (rat pheochromocytoma), MDA-MB-231 (human breast cancer cells), TIG-3 (human normal fibroblast cells), HeLa 786C cells (human cervical cancer cells), Saos-2 (telomerase and p53-deficient human cancer cells) and SUSM-1 (telomerase-deficient human cancer cells) were used.
(§2) The direct growth suppression activity of VST on these cells was measured using the MTT method. 100 μL cell suspension (5×10^4/mL) of each of the above-mentioned cells was dispensed into each well of a 96-well plate and cultured for 6 hours at 37° C. After culturing, VST solution diluted stepwise as in Example 4 was added thereto and cultured for another 24 hours. After culturing for 24 hours, 0.05 g/mL MTT solution (10 μL) was added to each well and incubation was performed at 37° C. for 4 hours. The medium was then removed, DMSO (100 μL) was added, and the absorbance at 530 nm was measured (FIG. 8).
On the technique in general: Tetrazolium dyes change colour on reduction, which living cells bring about.

The test system of a further experiment is HeLa786C. Briefly: Direct growth suppression, MTT method. Type of experiment: cell-based. As to conditions: Homo sapiens, 24 hours, read-out: IC50 of VST.
Excerpt: as §1, §2

In another experiment the test system is MCF-7. Briefly: Direct growth suppression, MTT method. Type of experiment: cell-based. The following applies: Homo sapiens, MCF7, 24 hours, read-out: IC50 of VST.
Excerpt: as §1, §2

In another experiment the test system is MDA-MB-231. Briefly: Direct growth suppression, MTT method. Type of experiment: cell-based. The following applies: Homo sapiens, 24 hours, read-out: IC50 of VST.
Excerpt: as §1, §2

Another experiment deals with PC12NH. The experiment can be described thus: Direct growth suppression, MTT method. Format: cell-based. As to conditions: Rattus norvegicus, 24 hours, read-out: IC50 of VST.
Excerpt: as §1, §2

A further experiment deals with SUSM-1. Briefly: Direct growth suppression, MTT method. Type of experiment: cell-based. The following applies: Homo sapiens, 24 hours, read-out: IC50 of VST.
Excerpt: as §1, §2

A further experiment deals with Saos-2. The experiment can be described thus: Direct growth suppression, MTT method. Format: cell-based. As to conditions: Homo sapiens, 24 hours, read-out: IC50 of VST.
Excerpt: as §1, §2

The test system of another experiment is TIG-3. Briefly: Direct growth suppression, MTT method. Type of experiment: cell-based. As to conditions: Homo sapiens, 24 hours, read-out: IC50 of VST.
Excerpt: as §1, §2

Experiment [1] relates to HeLa cells and various other culture cells. The experiment can be described thus: Survival rate of a variety of cells, MTT method (all cell lines together). Type of experiment: cell-based.
Excerpt: as §1, §2

For a further experiment, the system named is GRP78. Briefly: Western blotting of endogenous GRP78 induction in HeLa78C6 cells. Type of experiment: cell-based, human. As to the method: HeLa78C6 cells were cultured in DMEM media, 30 min before tunicamycin addition each concentration of VST was added, followed by 2 μg/mL of tunicamycin, and treated for 18 hours. The cells were collected, and the induction of GRP78 was detected by Western blotting using anti-GRP78 antibody (Stressgene). As a result, it was confirmed that VST inhibits not only the reporter assay, but also the induction of endogenous molecular chaperone GRP78 at the protein level in a concentration-dependent manner (FIG. 9A).
Furthermore, HeLa78C6 was cultured by the above-mentioned culturing method and pretreated for 30 min with 50 μM VST. Then, the cells were collected at each time point after the addition of tunicamycin to detect the GRP78 protein level by Western blotting.
Moreover, the GRP78 level 18 hours after the treatment with each of the indicated endoplasmic reticulum stress-inducing agents was detected using a method similar to that used for FIG. 9A.
(In general: A western blot detects proteins with antibodies after separation by electrophoresis.)

The subject of another experiment is XBP1. The experiment can be described thus: Formation of spliced XBP1 in HT1080 transfected with Flag-tagged XBP1. Format: cell-based. The source says: To elucidate the mechanism of VST to express its activity, the effect of VST on several factors that function in the pathway of endoplasmic reticulum stress response was examined. In particular, Ire1α-XBP1 pathway, a pathway of endoplasmic reticulum stress response and is widely conserved from yeast to mammalian cells, was examined. XBP1 spliced at the mRNA level from a precursor (XBP1 (U)) by Ire1α, that is activated in response to endoplasmic reticulum stress turns into the activated form (XBP1(S)), transfers to the nucleus, and induces transcription of GRP78 by binding to the GRP78 promoter, ERSE.
A plasmid wherein a Flag tag is linked to the cloned XBP1 was transfected into HT1080, and the cell was pretreated for 30 min with VST. 6 hours after imposing each stress, proteasome inhibitor MG132 was added and the cells were cultured for another 6 hours to prepare samples. The full length and spliced XBP1 were detected in the samples using anti-Flag antibody. Examination on the formation of the spliced form XBP1 due to 2-DG treatment is shown in FIG. 16A and that due to tunicamycin treatment is shown in FIG. 16B. Since the spliced form of XBP1 is very rapidly degraded by proteasomes, its detection is difficult. To overcome this problem, proteasome inhibitor MG132 was added. […]

pIC50: −log10 of the molar value.

Broadly, the pIC50 is the IC50 on a negative log10 scale, so that one unit is a factor of ten. In the case of `CC/C1=C\C(CO)CC(C)C(OC2CC(O)C(OC3CC(OC)C(OC4CC(O)C(O)C(C)O4)C(C)O3)C(C)O2)C(C)CCCC2(C)C=C(C)C(C)CC23OC(=O)C(=C3O)C(=O)C2(CC)C1C(C)=CC1C(O)CC(=O)C(C)C12` (centres unmarked) [VST, versipelostatin], the pIC50 with HeLa cells was less than 4.00; in the experiment on HeLa786C, 4.28; in the experiment on MCF-7, less than 4.00; in the experiment on MDA-MB-231, less than 4.00; with PC12NH, less than 4.00; in the experiment on SUSM-1, less than 4.00. Further, the pIC50 in the experiment on Saos-2 and with TIG-3 was less than 4.00 in each case. In experiment [1] (VST 100 μg/mL, many cell lines), the “degree of decrease of survival rate” value is recorded as no more than 50%. Besides, the survival rate result is listed as “slight decrease was observed in a few cell lines” in experiment [1] (VST approximately 10 μg/mL) and “No decrease in the survival rate was observed” in experiment [1] (VST final concentration of 1 μg/mL, all cell lines). The “GRP78 protein level, time course” value in the experiment on GRP78 (50 μM VST pretreatment 30 min, 12 to 18 hours after tunicamycin 2 μg/mL (FIG. 9B)) is on record as “inhibited”. Also, the “selectivity of the effect among endoplasmic reticulum stresses” value in the experiment on GRP78 (18 hours (FIG. 9C)) was “higher selectivity against 2-deoxyglucose”. In addition, the “induction of GRP78 by each endoplasmic reticulum stress-inducing agent” value with GRP78 (18 hours after treatment (FIG. 9C)) is on record as “inhibited the induction of GRP78 against any of the endoplasmic reticulum stresses”. Also, the “induction of endogenous GRP78 at the protein level” value in the experiment on GRP78 (each concentration of VST 30 min before tunicamycin 2 μg/mL, 18 hours (FIG. 9A)) is recorded as “inhibits”. Further, the “formation of spliced XBP1” value with XBP1 (2-DG treatment, MG132 added (FIG. 16A)) is reported as “inhibited”; in the experiment on XBP1 (tunicamycin treatment, MG132 added (FIG. 16B)), “did not inhibit the splicing of XBP1”.

The values are drawn from US7358233B2, “Tetronic acid derivative” (Toudai TLO, Ltd, priority 2001, dated 2008).
